According to patent US9527857B2, “HSPC-sparing treatments for RB-positive abnormal cellular proliferation” (G1 Therapeutics, Inc., priority 2013, dated 2016):
Entries after “also recorded” stand apart in the source; their conditions may differ.

Experiments:
[1] = Mouse pharmacokinetics (oral gavage / intravenous); assay type: in vivo, mice; settings: plasma, 30 mg/kg, read-out: F (oral bioavailability)
Protocol: Blood samples were taken at 0, 0.25, 0.5, 1.0, 2.0, 4.0, and 8.0 hours post dosing and the plasma concentrations were determined by HPLC.

[2] = tested on: Rb phosphorylation at Ser780 and Ser807/811 in A2058; test: Rb phosphorylation western blot, CDK4/6-independent cell line; assay type: cell-based; settings: 300 nM; 4, 8, 16, 24 hours
Protocol: MAPK levels are shown as a control for protein levels. Following treatment, cells were harvested and analyzed for Rb-phosphorylation by western blot analysis.
The CDK4/6-cyclin D complex is essential for progression from G1 to the S-phase of the DNA cell cycle. This complex phosphorylates the retinoblastoma tumor suppressor protein (Rb). […] Samples were lysed and protein was assayed by western blot analysis. Rb phosphorylation was measured at two sites targeted by the CDK4/6-cyclin D complex, Ser780 and Ser807/811 using species specific antibodies.

[3] = tested on: A2058 cells (CDK4/6-independent, Rb-negative); test: Cell cycle arrest (propidium iodide flow cytometry), A2058; assay type: cell-based; settings: 300 nM, 24 hours
From the text: (§1) To test the ability of CDK4/6 inhibitors to induce a clean G1-arrest, a cell based screening method was used consisting of two CDK4/6-dependent cell lines (tHS68 and WM2664; Rb-positive) and one CDK4/6-independent (A2058; Rb-negative) cell line. […] At the conclusion of the experiment, cells were harvested, fixed, and stained with propidium iodide (a DNA intercalator), which fluoresces strongly red (emission maximum 637 nm) when excited by 488 nm light. Samples were run on Dako Cyan flow cytometer and >10,000 events were collected for each sample. Data were analyzed using FlowJo 2.2 software developed by TreeStar, Inc.

[4] = tested on: ZR-75-1 (breast ductal carcinoma, Rb-positive); test: Cellular proliferation assay (CellTiter-Glo), ZR-75-1; assay type: cell-based
Protocol: Cellular proliferation assays were conducted using the following cancer cell lines: MCF7 (breast adenocarcinoma—Rb-positive), ZR-75-1 (breast ductal carcinoma—Rb-positive), H69 (human small cell lung cancer—Rb-negative) cells, or A2058 (human metastatic melanoma cells—Rb-negative). These cells were seeded in Costar (Tewksbury, Mass.) […] 96 well tissue culture treated white walled/clear bottom plates. Cells were treated with the compounds of Table 1 as nine point dose response dilution series from 10 uM to 1 nM. Cells were exposed to compounds and then cell viability was determined after either four (H69) or six (MCF7, ZR75-1, A2058) days as indicated using the CellTiter-Glo® luminescent cell viability assay (CTG; Promega, Madison, Wis., United States of America) following the manufacturer's recommendations. Plates were read on BioTek (Winooski, Vt.) Syngergy2 multi-mode plate reader. The Relative Light Units (RLU) were plotted as a result of variable molar concentration and data was analyzed using Graphpad (LaJolla, Calif.) Prism 5 statistical software to determine the EC50 for each compound.

[5] = tested on: HSPCs (LKS+); test: Bone marrow HSPC proliferation by EdU incorporation and flow cytometry; assay type: in vivo; settings: 150 mg/kg oral gavage, mice
Protocol: . JCNI 2012; 104(6):476-487 (FIG. 2A). […].
Mice were then sacrificed at the indicated times (0, 12, 24, 36, or 48 hours following compound administration), and bone marrow was harvested (n=3 mice per time point), as previously described (Johnson et al. J. Clin. Invest. (2010) 120(7), 2528-2536). Four hours before the bone marrow was harvested, mice were treated with 100 μg of EdU by intraperitoneal injection (Invitrogen). Bone marrow mononuclear cells were harvested and immunophenotyped using previously described methods and percent EdU positive cells were then determined (Johnson et al. J. Clin. Invest. (2010) 120(7), 2528-2536). In brief, HSPCs were identified by expression of lineage markers (Lin−), Sca1 (S+), and c-Kit (K+).
Four hours before animals were sacrificed and the bone marrow was harvested, mice were treated with 100 μg of EdU by intraperitoneal injection. Three mice per group were sacrificed at 12 hours and the remaining three animals per group were sacrificed at 24 hours. Results are shown in FIG. 5A as the ratio of EdU positive cells for treated animals at 12 or 24 hour time points compared to control.
Further experiments were completed with Compound T examining dose response and longer periods of compound treatment. […] […].
Both compounds were administered at 150 mg/kg by oral gavage. One hour prior to harvesting bone marrow, EdU was IP injected to label cycling cells. Bone marrow was harvested at 12, 24, 36, and 48 hours after compound treatment and the percentage of EdU positive HSPC cells was determined at each time point.

[6] = tested on: WM2664 cells (CDK4/6-dependent, Rb-positive); test: Cell cycle arrest (propidium iodide flow cytometry), WM2664; assay type: cell-based; settings: 300 nM, 24 hours
From the text: as §1

[7] = Metabolic stability in liver microsomes; assay type: in vitro ADME, human, dog, rat, monkey, and mouse; settings: each of the species tested
Protocol: Human, mouse, and dog liver microsomes were purchased from Xenotech, and Sprague-Dawley rat liver microsomes were prepared by Absorption Systems. The reaction mixture comprising 0.5 mg/mL of liver microsomes, 100 mM of potassium phosphate, pH 7.4, 5 mM of magnesium chloride, and 1 uM of test compound was prepared. The test compound was added into the reaction mixture at a final concentration of 1 uM. An aliquot of the reaction mixture (without cofactor) was incubated in shaking water bath at 37 deg. C. for 3 minutes. The control compound, testosterone, was run simultaneously with the test compound in a separate reaction. The reaction was initiated by the addition of cofactor (NADPH), and the mixture was then incubated in a shaking water bath at 37 deg. C. Aliquots (100 μL) were withdrawn at 0, 10, 20, 30, and 60 minutes for the test compound and 0, 10, 30, and 60 minutes for testosterone. […] Test compound samples were analyzed using the Orbitrap high resolution mass spectrometer to quantify the disappearance of parent test compound and detect the appearance of metabolites. […] Half-lives were calculated using GraphPad software, fitting to a single-phase exponential decay equation.
When calculated half-life was longer than the duration of the experiment, the half-life was expressed as >the longest incubation time. The calculated half-life is also listed in parentheses. […]

bioavailability [1]: 80%
half-life in liver microsomes compared with PD0332991 [7]: shorter in each species
Compound: CN1CCN(c2ccc(Nc3ncc4cc5n(c4n3)C3(CCCCC3)CNC5=O)nc2)CC1 [T]
Rb phosphorylation in CDK4/6-independent cells (A2058) [2]: no effect
cell cycle distribution after treatment [3]: no effect; also recorded: does not cause a loss of the S-phase peak
activity against ZR75-1 cells compared with PD0332991 (FIG. 25) [4]: more potent activity against ZR75-1 cells than PD0332991
inhibition of cellular proliferation of ZR75-1 cells (FIGS. 25-28) [4]: significant inhibition of cellular proliferation
EdU incorporation into HSPCs at 12 and 24 hours (FIG. 5A) [5]: reduction in EdU incorporation at 12 hours which was starting to return to normal at 24 hours
cell cycle distribution after treatment [6]: causes a loss of the S-phase peak
